Positions count from the first letter of the chain named.
How the values were obtained:
[1] = according to ATSDR; ref https://www.atsdr.cdc.gov/toxprofiles; cited from earlier work
human OCTN1 = target: T1, human OCTN1 (Homo sapiens, UniProt Q9H015); assay type: biochemical; conditions: 60 min; for IC50: OCTN1 WT proteoliposomes, 0.1 mM [14C]-TEA, read-out: IC50 (µM) on [14C]-TEA uptake
T1 construct: made in house; host or cells: E. coli Rosetta(DE3)pLysS
T1 sequence (Q9H015 1-551): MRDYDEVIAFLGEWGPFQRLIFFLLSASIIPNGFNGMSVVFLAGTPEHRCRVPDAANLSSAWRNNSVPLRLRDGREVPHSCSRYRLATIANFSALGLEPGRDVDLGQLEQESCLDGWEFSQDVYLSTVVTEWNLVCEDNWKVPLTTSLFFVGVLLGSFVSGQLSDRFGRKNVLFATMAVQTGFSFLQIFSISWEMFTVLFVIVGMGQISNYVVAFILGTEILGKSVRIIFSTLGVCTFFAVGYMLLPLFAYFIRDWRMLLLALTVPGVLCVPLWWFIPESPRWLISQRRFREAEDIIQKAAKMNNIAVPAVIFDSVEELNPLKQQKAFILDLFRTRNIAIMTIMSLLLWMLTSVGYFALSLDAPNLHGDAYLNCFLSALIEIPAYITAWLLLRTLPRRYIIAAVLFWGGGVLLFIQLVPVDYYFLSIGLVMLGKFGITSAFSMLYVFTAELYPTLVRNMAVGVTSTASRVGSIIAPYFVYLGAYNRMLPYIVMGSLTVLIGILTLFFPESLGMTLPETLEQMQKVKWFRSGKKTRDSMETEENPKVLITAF
Procedure: (§1) After desalting, the protein was reconstituted in liposomes. The composition of the initial mixture used for reconstitution was as follows: 50 µg of protein (or desalt buffer in liposomes without the incorporated protein), 80 µL of 10% C12E8, 120 µL of 10% egg yolk phospholipids with 25% cholesterol in the form of sonicated liposomes, 16 mM ATP disodium salt, and 5 mM BisTris/HCl (pH 7.5) in a final volume of 700 µL. The purified OCTN1 (WT or C-less mutant) was inserted in the liposomal membrane using the batch-wise technique. This procedure used 0.5 g of Amberlite XAD-4 to remove the detergent from mixed micelles consisting of proteins, phospholipids and detergent at 23 °C for 40 min at 1200 rpm, as previously described.
(§2) Proteoliposomes and liposomes (600 μL) were applied onto a Sephadex G-75 (Merck Life Science, Milan, Italy) column (0.7 cm diameter × 15 cm height) pre-equilibrated with 5 mM BIS-Tris/HCl (pH 8.0) and eluted with 600 μL of the same buffer. Samples of 100 μL each were prepared from the 600 μL pool. The transport was initiated by [^14C]-TEA or [^3H]-Ach at the concentration of 0.1 mM to the proteoliposome samples and stopped after 60 min according to the stop-inhibitor method. In the blank samples, the inhibitor (1 mM Hemicholinium-3) was added at time zero. After the transport time, each sample was applied onto a Sephadex G-75 column (0.6 cm diameter × 8 cm height) and pre-equilibrated with 50 mM NaCl to remove the radioactivity not taken up. Proteoliposomes were eluted with 50 mM NaCl (1 mL), added to 3 mL Pico-Fluor Plus, vortexed, and counted. The radioactivity in the blank samples was used to subtract background radioactivity from the protein-associated one.
All experimental data were derived from the mean of three independent experiments, and results were expressed as means ± SD. IC50 values were derived from data fitting the IC50 equation using Grafit v 5.0.13 software (Erithacus Software (v 5.0.13), East Grinstead, UK).

Cys-less OCTN1 = target: T2, Cys-less OCTN1 (Homo sapiens, UniProt Q9H015, C113A/C136A/C236A/C270A/C374A/C50A/C81A); experiment: [14C]-TEA uptake by Cys-less OCTN1 mutant reconstituted in proteoliposomes; assay type: biochemical; conditions: 100 µM metal (250 µM CrCl2), 0.1 mM [14C]-TEA, 60 min
T2 construct: made in house; host or cells: E. coli Rosetta(DE3)pLysS
T2 sequence (Q9H015 1-551 C50A/C81A/C113A/C136A/C236A/C270A/C374A): T1 sequence (Q9H015 1-551) with C50A, C81A, C113A, C136A, C236A, C270A, C374A
Procedure: The over-expression of OCTN1 wild type (WT) and C-less mutant proteins, as previously described in [17], has been performed in E. coli Rosetta(DE3)pLysS, as described in [60, 61].
as §1, with “This procedure used 0.5 g of Amberlite XAD-4 to remove the detergent from mixed micelles consisting of proteins, phospholipids and detergent at 23 °C for 40 min at 1200 rpm, as previously described.” left out
as §2, with “Samples of 100 μL each were prepared from the 600 μL pool. The transport was initiated by [^14C]-TEA or [^3H]-Ach at the concentration of 0.1 mM to the proteoliposome samples and stopped after 60 min according to the stop-inhibitor method. In the blank samples, the inhibitor (1 mM Hemicholinium-3) was added at time zero.” left out

| Compound | Level of Toxicity [1] | IC50 (human OCTN1) [µM] | further results |
| --- | --- | --- | --- |
| [Cd] [Cadmium] | +++ | – | – |
| [Cl][Cd][Cl] [CdCl2, Cadmium chloride] | – | 56 ± 4 | – |
| [Cr] [Chromium] | +++ | – | – |
| [Cl][Cr][Cl] [CrCl2, Chromium (II) chloride] | – | 170 ± 15 | Inhibition of [14C]-TEA transport by Cys-less OCTN1 (Cys-less OCTN1): only exception; Effect of DTE and cysteine on the inhibition of [14C]-TEA transport by heavy metals (human OCTN1; 100 µM metal (250 µM CrCl2), 5 mM DTE or Cys): only exception |
| [Cl][Hg][Cl] [HgCl2, Mercury (II) chloride] | – | 121 ± 7 | – |
| O=[N+]([O-])[O-].O=[N+]([O-])[O-].[Pb+2] [Pb(NO3)2, Lead nitrate] | – | 90 ± 19 | – |
| [Zn] [Zinc] | + | – | – |
| [Cl-].[Cl-].[Zn+2] [ZnCl2, Zinc chloride] | – | 57 ± 17 | – |

Source: PMC11642070, “OCTN1 (SLC22A4) as a Target of Heavy Metals: Its Possible Role in Microplastic Threats” (International Journal of Molecular Sciences, 2024)
